Results from patent US7071168B2, “Anti-cancer compounds and methods related thereto” (The Regents of the University of Colorado, priority 1998, dated 2006).

Test system: SCLC strain SHP-77
Experiment: Colorimetric tetrazolium (MTT) assay for cell survival, SCLC strain SHP-77
Format: cell-based, human
Description: In general, Anti-bradykinin activity was determined by the classical guinea pig ileum assay and on Chinese hamster ovary (CHO) cells expressing cloned human bradykinin B2 receptors. Anti-tumor activity was determined on cultured human cancer cell lines using the standard tetrazolium (MTT) assay.
Cell growth and survival were measured by a rapid colorimetric assay based on the tetrazolium salt MTT (3-(4,5-dimethylthiazol-2-yl)-2,5-diphenyl tetrazolium bromide) (Mosmann, J Immunol. Methods 65: 55–63, 1983, with minor modifications). Briefly, 1,000 normal lung fibroblasts or normal epithelial BEAS-2B cells, 1,000 or 5,000 viable non-SCLC cells or 10,000 viable SCLC cells were plated in 100 μL of growth medium in 96-well flat-bottomed microtiter plates. Cells were incubated overnight to allow recovery. Compounds to be tested were added to the cells in triplicate in a range of concentrations and the cells were incubated at 37° C., 5% CO2, with 100% humidity. Control cells were treated in the same way without antagonists. […] Plates were incubated for 4 days, allowing sufficient time for cell replication and compound-induced cell death to occur. On day 5, 25 μL of a 2 mg/mL solution of MTT (Sigma) dissolved in RMPI-1640was added to each well. The plate was incubated for 4 h at 37° C. The supernate was removed and the blue formazan complex was dissolved by adding 100 μL of 0.02 N HCl in 75% isopropanol to all wells. Absorbance was immediately determined using a scanning multiwell plate reader. B9870 caused 50% cell death at a concentration of 0.15 μM under these conditions.

| Compound | MTT: ED50 for killing of SCLC strain SHP-77 in vitro (Table 1, SHP-77, MTT, 4 days) | also measured |
| --- | --- | --- |
| CC1(C)CC(NC(=O)C(Cc2csc3ccccc23)NC(=NC2CCCCC2)NC2CCCCC2)CC(C)(C)N1 (centres unmarked) [M440] |  | MTT: ED50 for killing of SCLC strain SHP-77 in vitro (SCLC strain SHP-77 in vitro): 30 µM |
| ζ-SUB-(ApC-F5F-Arg)2 [M926] | Inact |  |
| α-DDD-(c[Lys-DArg-Arg-Pro-Hyp-Gly-Thi-Ser-DF5F-Oic-Arg])2 [B10312] |  | MTT: ED50 for killing of SCLC strain SHP-77 in vitro (Table 3, cyclic peptides): 3.8 µM |
| Aaa-DArg-Arg-Eac-Ser-D5F5-Oic-Arg [M954] | 10 µM |  |
| F5c-PCF-Arg [M714] | Inact |  |
| α-DDD-(K-DArg-Arg-Eac-Ser-DF5F-Oic-Arg)2 [M950] | 6.7 µM |  |
| c[Suc-DArg-Arg-Eac-Ser-DIgl-PaF]-Arg [M924] |  | MTT: ED50 for killing of SCLC strain SHP-77 in vitro (Table 3, cyclic peptides): 37 µM |
| DDD-(DArg-hPhe-Arg-NH2)2 [M560] | 50 µM |  |
| Dcg-Digl-Oic-Arg [B9490] | >60 µM |  |
| O=C(C=Cc1c(F)c(F)c(F)c(F)c1F)NC(Cc1ccc2ccccc2c1)C(=O)NCc1cccnc1 (centres unmarked) [M466] |  | MTT: ED50 for killing of SCLC strain SHP-77 in vitro (SCLC strain SHP-77 in vitro): Inact |
| Ac-OC2Y-Arg [M784] | Inact |  |
| Dca-hPhe-Arg [M542] | 80 µM |  |
| Pac-hPhe-Arg [M752-2] | Inact |  |
| Cin-hPhe-Arg [M706] | Inact |  |
| CCOC(=O)CN1C(C)(C)CC(NC(=O)C(Cc2ccc3ccccc3c2)NC(=O)C(C2CCCCC2)C2CCCCC2)CC1(C)C (centres unmarked) [M572] |  | MTT: ED50 for killing of SCLC strain SHP-77 in vitro (SCLC strain SHP-77 in vitro): 2.6 µM |
| DDD-(DArg-Arg-Aud-DIgl-hPhe-Arg)2 [M786] | 3.2 µM |  |
| DDD-(DArg-Arg-Eac-Ser-DIgl-PFF-Arg)2 [M932] | 6.0 µM |  |
| DDD-(DArg-Arg-Aud-Pac-2Nal-DArg-NH2)2 [M710] | 1.7 µM |  |

| Compound | MTT: ED50 for killing of SCLC strain SHP-77 in vitro (Table 1, SHP-77, MTT, 4 days) | also measured |
| --- | --- | --- |
| 33Dp-DArg-Arg-Aud-Ser-D5F5-Oic-Arg [M964] | 4 to 8 µM |  |
| Aaa-Pac-hPhe-Arg [M752-6] | Inact |  |
| Cc1cc(NC(=O)c2cccc(NC(=O)CNC(=O)/C=C/c3cccnc3)c2)c2ccccc2n1 [M428] |  | MTT: ED50 for killing of SCLC strain SHP-77 in vitro (SCLC strain SHP-77 in vitro): >300 µM |
| CN(C)CCCNC(=O)[C@H](Cc1ccc2ccccc2c1)NC(=O)C=Cc1ccc(NC(=O)CCCCCCCCCCC(=O)Nc2ccc(C=CC(=O)N[C@@H](Cc3ccc4ccccc4c3)C(=O)NCCCN(C)C)cc2)cc1 [M538] |  | MTT: ED50 for killing of SCLC strain SHP-77 in vitro (SCLC strain SHP-77 in vitro): >80 µM |
| α-DDD-(ApC-F5F-Arg)2 [M930] | Inact |  |
| c[DArg-Arg Add-DIgl-PFF-Arg] [M878] |  | MTT: ED50 for killing of SCLC strain SHP-77 in vitro (Table 3, cyclic peptides): 7 µM |
| Dmac-DArg-Arg-Aud-Ser-D5F5-Oic-Arg [M968] | 15 µM |  |
| Pya-hPhe-Arg [M540] | >100 µM |  |
| CC1(C)CC(NC(=O)[C@@H](NC(=N)CCCCCCCCCCCCC(=O)O)C2Cc3ccccc3C2)CC(C)(C)N1 [M280-1] |  | MTT: ED50 for killing of SCLC strain SHP-77 in vitro (SCLC strain SHP-77 in vitro): 21 µM |
| F5bz-F5F-Arg [M132] | 60 µM |  |
| CC1(C)CC(NC(=O)C(Cc2ccc3ccccc3c2)NC(=O)c2ccc(NC(=N)N)cc2)CC(C)(C)N1 (centres unmarked) [M306] |  | MTT: ED50 for killing of SCLC strain SHP-77 in vitro (SCLC strain SHP-77 in vitro): >100 µM |
| DDD-(DArg-Arg-Eac-Ser-DF5F-PFF-Arg)2 [M944] | 6.7 µM |  |
| CC1(C)CC(NC(=O)C(Cc2ccc(O)cc2)NC(=O)C=Cc2c(F)c(F)c(F)c(F)c2F)CC(C)(C)N1 (centres unmarked) [M316] |  | MTT: ED50 for killing of SCLC strain SHP-77 in vitro (SCLC strain SHP-77 in vitro): 50 µM |
| F5c-PFF-Arg-NH2 [M812] | 15 µM |  |
| Dcg-hPhe-Arg [M558] | 100 µM |  |
| F5c-DArg-Arg-Aud-Pac-2Nal-Arg [M698] | 7.1 µM |  |
| F5c-p-APa-Arg [M216] | >180 µM |  |
